Source: patent US10903496B2, “Rigid naphthalenediimide triangle structures” (Northwestern University, priority 2015, dated 2021)
Values after ≈ are worked out from the molar mass of the structure shown. Like-named read-outs stand apart in the source and are kept apart here.

How the values were obtained:
[1] = Solubility in non-aqueous electrolyte solvents; format: physicochemical; details: for solubility in non-aqueous electrolyte solvents (in words): neutral state
[2] = Thermal gravimetric analysis (thermal stability); format: physicochemical
Method: Thermal stabilities were analyzed using a PerkinElmer Pyris Diamond TG/DTA analyzer. The temperature was increased from room temperature to 600° C. at a heating rate of 10° C. min^−1 under N2 atmosphere. […] The greater thermal stability of (−)-NDI-Δ is attributed to its higher molecular weight and more rigid structure compared to NDI-Ref.

solubility in non-aqueous electrolyte solvents (in words) [1]	thermal stability: temperature up to which stable / at which decomposition starts [2] [°C]	solubility in the electrolyte solvents ([1]; electrolyte solvents) [µg/mL]	thermal stability: temperature up to which stable / at which decomposition starts ([2]; TGA, room temperature to 600° C. at 10° C. min^−1 under N2, one-step decomposition) [°C]	SMILES
only sparingly soluble	–	–	–	O=C1c2ccc3c4c5ccc(c24)C(=O)N1C1CCCC[C@@H]1N1C(=O)c2ccc4c6c(ccc(c26)C1=O)C(=O)N(C4=O)[C@H]1CCCC[C@@H]1N1C(=O)c2ccc4c6c(ccc(c26)C1=O)C(=O)N(C4=O)C1CCCC[C@@H]1N(C3=O)C5=O (single isomer, unassigned; (+)) [(+)-NDI-Δ]
only sparingly soluble	400	–	–	O=C1c2ccc3c4c5ccc(c24)C(=O)N1C1CCCC[C@H]1N1C(=O)c2ccc4c6c(ccc(c26)C1=O)C(=O)N(C4=O)C1CCCC[C@H]1N1C(=O)c2ccc4c6c(ccc(c26)C1=O)C(=O)N(C4=O)C1CCCC[C@H]1N(C3=O)C5=O (single isomer, unassigned; (-)) [(−)-NDI-Δ]
considerably more soluble	–	~100 (≈ 232 µM)	250	O=C1c2ccc3c4c(ccc(c24)C(=O)N1C1CCCCC1)C(=O)N(C1CCCCC1)C3=O [NDI-Ref]
